Earlier results as cited in patent US6747011B1, “Antitumor drugs and methods” (A.P. Group, Inc., priority 2003, dated 2004).

Settings: alkaline and physiological conditions

COC[C@@H](C[C@H]1O[C@@](O)([C@H](O)[C@@H]2C[C@H](OC)[C@@H](O)CC/C=C(C)/C=C/[C@@H](O[C@@H]3O[C@@H](C)[C@H](OC)[C@@H](O)[C@@H]3O)[C@H](C)/C=C(C)/C=C(C)/C=C(\C)C(=O)O2)[C@H](C)[C@@H](O)[C@H]1C)OC1C[C@](C)(O)[C@@H](O[C@H]2C[C@@H](OC)[C@H](O)[C@@H](C)O2)[C@H](C)O1 (stereo partly shown) [Apoptolidin]
stability, isomerization to isoapoptolidin: unstable under alkaline and physiological conditions and readily isomerizes to isoapoptolidin
